Laboratory results as given in US20170100345A1, “WOUND HEALING USING BRAF INHIBITORS” (THE REGENTS OF THE UNIVERSITY OF CALIFORNIA, priority 2014, published 2017).
Values joined by “and” are separate entries in the source; they are usually repeats but may differ in a detail not shown here. Equal entries are not always repeated. “Also recorded” adds a separate entry of the source.

Columns and labels:
[1] = tested on: Human epithelial adult keratinocytes (HEKa); assay: cell proliferation wound-healing assay, 96 well plates with seeder stoppers; type: cell-based; settings: 24 hours, vs control treated wells
Source text: (§1) FIG. 2 illustrates that BRAF inhibition induces paradoxical MAPK activation in human keratinocytes leading to increased proliferation. FIG. 2A is a quantitative analysis of proliferation and scratch healing as the percentage relative wound density of cells at different time points in replicate cultures of HEKa in the presence or absence of vemurafenib by automated microscope analyzer. P value <0.0044 by t-test. […] FIG. 2C illustrates fold-change representation of colony quantification of HEKa and M249 cells grown in soft-agar with or without exposure to vemurafenib. […] The co-expression levels of pERK and Ki67 are shown in the middle of the panel, and quantified and represented a fold change on the left.
(§2) Human epithelial adult keratinocytes (HEKa) cultured in 96-well plates were subject to a scratch assay, where proliferating keratinocytes should regrow and cover the scratch. Replicate cultures with or without the BRAF inhibitor vemurafenib were placed in an incubator with an automated microscope analyzer and the number of nucleated cells in the original scratch was recorded over time. […] Using these cultures, paradoxical MAPK activation and cell proliferation were analyzed by western blot (FIGS. 2F-2G) and quantitative phosphoflow cytometry (FIG. 2H and FIGS. 4A-4B).

[2] = tested on: Human epithelial adult keratinocytes (HEKa); assay: scratch assay of HEKa, automated microscope analyzer; type: cell-based; settings: HEKa with vs without vemurafenib; evident at 6, 8 and 12 hours
Source text: as §1
(§3) Quantitative analysis of proliferation is represented in FIG. 2A.
as §2

[3] = tested on: skin wounds and their surroundings; assay: histological analysis (H&E) of healing wounds in mice; type: in vivo
Source text: FIG. 6 is a schematic representation of the pathological analysis of wound healing on days 1 (D1), 2 (D2) and 6 (D6) post-treatment. […] Wound-adjacent epidermis undergoes hyperplasia and proliferation and epidermal cells from this process migrate centrally to seal the incised epidermal deficiency. The space of the incision fills initially with fibrin, which is then colonized by fibroblasts, macrophages, polymorphonuclear cells and new capillaries. […] Each bar includes data from 4 samples.
The area of the wounds and their surroundings were analyzed histologically by H&E staining by two pathologists and the extent of epidermal hyperplasia on both sides of the healing wounds was measured on days 1, 2 and 6 post-treatment (FIGS. 6A and 6B).

HEKa = assay: three-dimensional soft agar colony assay, HEKa; type: cell-based, human
Source text: as §1, §3, §2

[4] = tested on: pERK and Ki67 in BRAF^V600E mutant human melanoma cell line M249; assay: MAPK signaling and cell proliferation by western blot and phosphoflow cytometry, M249; type: cell-based; settings: western blot and phosphoflow (VEM 2 μM)
Source text: as §1, §2

[5] = tested on: MAPK and wound healing pathway output; assay: RNASeq gene expression profiling of healing cutaneous wounds; type: in vivo, mice
Procedure: The skin samples obtained from mice treated either with vemurafenib or vehicle were analyzed for changes in MAPK and wound healing pathway output by RNASeq. The gene output of MAPK was compared to published data on the transcripts that were differentially modulated by blocking oncogenic MAPK signaling downstream of mutated BRAF^V600E using BRAF inhibitors, or to a published cutaneous wound healing gene signature.

2.5 cm dorsal skin wound = assay: wound-healing assay in C3H mice, wound tensile strength by tensiometer; type: in vivo
Procedure: FIG. 5A is a schematic representation of the wound-healing assay performed in […] mice according to some embodiments.
In a controlled wound-healing assay in C3H mice, a 2.5 cm dorsal skin wound was induced and was filled with either vehicle control (DMSO/saline) or a suspension of 2 mM of vemurafenib (obtained by crushing clinical grade pills of this agent) in vehicle. The skin wounds were surgically clipped on day 0 and mice were followed until day 14 (FIGS. 5A-5B). Over this time, the vemurafenib suspension or vehicle control was applied topically every other day to 24 mice in the test group or to 24 mice in the control group, respectively, for a total of seven doses per mouse. On day 14, the mice were euthanized and the skin containing the wound was removed and mounted in 20 mm strips with a horizontal wound sample in each strip. The wound tensile strength (WTS) was analyzed using a tensiometer that stretched the strips and recorded the WTS in gram force (gf).

[6] = tested on: BRAF^V600E mutant melanoma line M249; assay: three-dimensional soft agar colony assay, M249; type: cell-based, human; settings: M249, with vs without exposure
Source text: as §1, §3, §2

[7] = tested on: pERK and Ki67 in HEKa cells; assay: paradoxical MAPK activation and cell proliferation by western blot and phosphoflow cytometry, HEKa; type: cell-based, human; settings: western blot and phosphoflow (VEM 2 μM)
Source text: as §1, §2

CCCS(=O)(=O)Nc1ccc(F)c(C(=O)c2c[nH]c3ncc(-c4ccc(Cl)cc4)cc23)c1F [vemurafenib]
covering of the center of the wells by proliferating/migrating keratinocytes [1]: covered the center of the wells after 24 hours
covering of the original scratch (proliferation and scratch healing, relative wound density) [2]: accelerated the proliferation and migration of human keratinocytes; also recorded: statistically significant improvement in the covering of the original scratch
wounds re-epithelialized ([3]; by day 6): 100%
extent (length) of epidermal hyperplasia vs other treated groups ([3]; day 1 and 2): epidermal hyperplasia over a greater distance than the other treated groups
wound-adjacent epidermal inflammation ([3]; day 1 post-incision): more extensive
wound-adjacent (peri-lesional) epidermal hyperplasia, photomicrographs ([3]; day 2 post-incision): more extensive
dermal reparative / sub-epidermal fibrosis ([3]; day 6): beginning of sub-epidermal fibrosis
extent (length) of epidermal hyperplasia vs other treated groups ([3]; day 6): less epidermal hyperplasia
skin surface integrity ([3]; day 6): surface integrity was re-established; also recorded: Skin surface integrity re-established in 6 days
healing process / signs of healing or repair (pathologists' assessment) ([3]; days 1 to 6): the healing process is accelerated
onset of re-epithelialization ([3]; from day 2): strong and rapid re-epithelialization starting at day 2
mean spot size of HEKa colonies (HEKa; soft agar): increased significantly
number of HEKa colonies in soft agar (HEKa; with vs without exposure): increased in number
cell cycle (Ki67) [4]: cell cycle arrest
pERK [4]: decreased pERK
BRAF and wound-healing signatures, later course ([5]; after day 6, time point not given): more pronounced decrease
BRAF signature genes ([5]; day 2, vs control): slight increase
wound-healing signature genes ([5]; day 2, vs control): almost no change
BRAF signature genes ([5]; day 6, vs control): enriched significantly
wound-healing signature genes ([5]; day 6, vs control): enriched significantly
improvement in wound tensile strength (WTS) compared to saline control (2.5 cm dorsal skin wound; C3H mice, 2 mM suspension topically every other day, day 14, three independent replicate experiments (#1-3)): 52.6% and 32.9% and 42.8%
improvement in WTS vs. vehicle control (2.5 cm dorsal skin wound; separate cutaneous wound-healing assay (Experiment #4), trametinib 1 mg/kg where added): 37%
tensile strength of healing wounds (in words) (2.5 cm dorsal skin wound; wound-healing mouse model, topically applied): improved the tensile strength of healing wounds
number of M249 colonies in soft agar [6]: decrease in colonies
cell cycle (Ki67) [7]: cell cycle progression
pERK [7]: paradoxical increase in pERK
